US11584763B2, “Chromenopyridine derivatives as phosphatidylinositol phosphate kinase inhibitors” (HIBERCELL, INC., priority 2017, dated 2023)

Legend:
Assay type in all cases: biochemical
PIP4K 2A [1] = biological target: T1, PIP4K 2A (Homo sapiens, UniProt P48426); assay: ADP-glo kinase assay PIP4K 2A; parameters: 4 nM PIP4K2A (full length protein, SignalChem); purchased SignalChem; settings: compounds listed under IC50 bin headings
T1 sequence (P48426 1-406): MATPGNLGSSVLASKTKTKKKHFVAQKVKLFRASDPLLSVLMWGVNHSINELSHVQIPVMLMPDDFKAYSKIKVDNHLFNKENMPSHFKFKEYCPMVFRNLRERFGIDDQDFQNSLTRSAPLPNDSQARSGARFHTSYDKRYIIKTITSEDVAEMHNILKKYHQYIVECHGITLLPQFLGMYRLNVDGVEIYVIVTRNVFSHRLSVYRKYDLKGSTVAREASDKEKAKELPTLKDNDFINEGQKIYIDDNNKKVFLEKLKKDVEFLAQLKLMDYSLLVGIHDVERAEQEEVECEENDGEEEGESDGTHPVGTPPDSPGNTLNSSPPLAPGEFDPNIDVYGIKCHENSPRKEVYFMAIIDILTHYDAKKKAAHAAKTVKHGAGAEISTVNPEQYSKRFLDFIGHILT
How it was run: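 Inhibition was calculated versus DMSO controls from ADP-Glo luminescence and fitted to IC50 over a 10-point, threefold series. Compound was first pre-incubated 15 min at room temperature with PIP4K2A (full-length; 4 nM in the enzyme/substrate mix) and PI(5)P diC8 (100 μM in that mix). The reaction then ran for 1 h after adding 60 μM ATP solution, in MOPS pH 7.2/MgCl2/Tween buffer.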

PIP4K2B = biological target: T2, PIP4K2B (Homo sapiens, UniProt P78356); assay: Trans-FI P kinase assay PIP4K2B (PIP4KtypeIIB inhibition assay); settings: compounds listed under IC50 bin headings; 100 uM GTP; read-out: Trans-FI P kinase assays: PIP4K2B IC50
T2 construct: made in house; host or cells: E. coli
T2 sequence (P78356 1-416): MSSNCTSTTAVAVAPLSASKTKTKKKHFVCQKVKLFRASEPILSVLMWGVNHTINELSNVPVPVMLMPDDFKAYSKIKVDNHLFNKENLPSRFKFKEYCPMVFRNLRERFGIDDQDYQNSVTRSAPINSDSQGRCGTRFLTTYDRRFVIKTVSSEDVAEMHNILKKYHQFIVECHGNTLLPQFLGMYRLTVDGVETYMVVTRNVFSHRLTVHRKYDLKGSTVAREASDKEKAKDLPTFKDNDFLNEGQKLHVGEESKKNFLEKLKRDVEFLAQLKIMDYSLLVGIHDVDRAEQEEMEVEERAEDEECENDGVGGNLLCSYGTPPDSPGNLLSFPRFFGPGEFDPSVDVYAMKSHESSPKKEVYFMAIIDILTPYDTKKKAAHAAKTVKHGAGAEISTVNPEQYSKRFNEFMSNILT
How it was run: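 Transcreener FI fluorescence read-out of GDP formed by E. coli-expressed GST-PIP4K2B (5 nM) using 100 uM GTP and 80 uM PI5P with DOPE carrier lipid, pH 7.3, 2 h reaction. Compounds (up to 4.8 uM) were preincubated with enzyme 1 h at 27 C; IC50 fitted from residual activity relative to no-inhibitor control.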

PIP4K 2A [2] = biological target: T1, PIP4K 2A; assay: Kinase Assay PIP4K2 A (PIP4KtypeIIA inhibition assay); parameters: made in house; host or cells: E. coli; settings: compounds listed under IC50 bin headings
Text: GST tagged PIP4KtypeIIA and B enzymes were overexpressed in E. Coli and purified to >80% homogeneity. Phosphatidyl inositol-5-phosphate (PI5P, Cat. #850152, Avanti Polar Lipids Inc.) was used as the lipid substrate and phosphatidyl ethanolamine (DOPE 18:1, Cat. #850725, Avanti Polar Lipids Inc.) was used as the carrier lipid for assays. Ultrapure ATP and GTP was purchased from Bellbrooke Labs. ADP Glo reagents were obtained from Promega. Transcreener FI reagent was obtained from Bellbrooke labs.
Enzyme preparation: GST-tagged PIP4KtypeIIA (5 uL, 1.43 mg/mL) was diluted (1:10) to 50 uL using HNE buffer. From the 1:10 diluted stock, a 6.4 uL aliquot was diluted further to 5 mL using HNE buffer to yield 5× enzyme stock (2.5 nM).
Lipid Preparation: In a 10 mL pyrex glass vial, 1 ug of PI5P and 1 ug of DOPE were suspended in 2.5 mL of HEPES buffer mix and 2.5 mL of H:E buffer. The contents were mixed and sonicated for 3 min to yield a translucent lipid stock.
Compound Preparation: Compounds were stored as 5 mM stocks in neat DMSO as room temperature in glass vials. 5 mM stocks were diluted to 2 mM and then serially diluted (3×) in neat DMSO in 96 well polypropylene plates. From the serially diluted stocks, 3 uL was delivered into 250 uL of 25% DMSO (in water) to generate 5× compound stocks. Typically, the highest compound conc. was 24 uM.
The assay volume was kept at 25 uL. To each well of the reaction plate, 10 uL of lipid stock (1:1 ratio PI5P:DOPE) was delivered. This was followed by the addition of 5 uL of compound in 25% DMSO. Then, to each well, 5 uL of 2.5 nM (5×) typeIIA enzyme was delivered. The contents were mixed well and incubated for 1 h at 27 C. After 1 h, reaction was initiated by adding 5 uL of 50 uM ATP and the contents were mixed well with a multi-channel pipetteman. The final concentration of the reagents are as follows: 50 mM HEPES, pH 7.3, 10 mM MgCl2, 20 mM NaCl, 0.01% v/v triton-X100, 5% DMSO, 10 uM ATP, 80 uM (2 ug) PI5P, 2 ug DOPE, and 0.5 nM PIP4KIIA. Typically, the highest conc. of compounds was 4.8 uM and the lowest conc. was 0.
After 1 hr, the reaction was quenched by adding 25 uL of ADP Glo reagent. The contents were incubated for 1 hr. Afterwards, 50 uL of kinase detection reagent was delivered. The contents were incubated for another hour. The luminescence was read using Molecular Devices Paradigm plate reader. […] The blanks were averaged and subtracted from all other wells. Using a calibration curve, RLU was converted to uM ADP (product). IC50 was calculated by plotting the residual activity (expressed as % No inhibitor control) vs. log [Inh. conc.]

| Structure (SMILES) | IC50 (PIP4K 2A [1]) [nM] | IC50 (PIP4K2B) [nM] | IC50 (PIP4K 2A [2]) [nM] |
| --- | --- | --- | --- |
| CC1Oc2cc(N3CCCC3=O)ccc2-c2cnc(Nc3cncc(N4CCN(Cc5cscn5)C4=O)c3)cc21 (stereo not drawn) [Example 56, 1-(5-((5-methyl-8-(2-oxopyrrolidin-1-yl)-5H-chromeno[4,3-c]pyridin-3-yl)amino)pyridin-3-yl)-3-(thiazol-4-ylmethyl)imidazolidin-2-one] | ≤ 1 | 1 to 10 | ≤ 1 |
| CC1Oc2cc(N3CCCC3=O)ccc2-c2cnc(Nc3cncc(C(F)(F)F)c3)cc21 (stereo not drawn) [Example 81, 1-(5-methyl-3-((5-(trifluoromethyl)pyridin-3-yl)amino)-5H-chromeno[4,3-c]pyridin-8-yl)pyrrolidin-2-one] | 100 to 1000 | > 1000 | 10 to 100 |
| CC1Oc2cc(C(=O)N(C)C)ccc2-c2cnc(Nc3cnc4c(c3)N(C(=O)C(C)(C)C)CCO4)cc21 (stereo not drawn) [Example 67, N,N,5-trimethyl-3-((1-pivaloyl-2,3-dihydro-1H-pyrido[2,3-b][1,4]oxazin-7-yl)amino)-5H-chromeno[4,3-c]pyridine-8-carboxamide] | ≤ 1 | 1 to 10 | ≤ 1 |
| CC1(C)Oc2cc(N3CCCC3=O)ccc2-c2cnc(Nc3cnc4c(c3)N3C(=O)CC[C@H]3CO4)cc21 [Example 73, (S)-2-((5,5-dimethyl-8-(2-oxopyrrolidin-1-yl)-5H-chromeno[4,3-c]pyridin-3-yl)amino)-6,6a,7,8-tetrahydro-9H-pyrido[2,3-b]pyrrolo[1,2-d][1,4]oxazin-9-one] | ≤ 1 | 1 to 10 | ≤ 1 |
| CN(C)C(=O)c1ccc2c(c1)OC(C1CC1)c1cc(Nc3cnc4c(c3)N3C(=O)CC[C@H]3CO4)ncc1-2 (stereo partly drawn) [Example 36, 5-cyclopropyl-N,N-dimethyl-3-(((S)-9-oxo-6a,7,8,9-tetrahydro-6H-pyrido[2,3-b]pyrrolo[1,2-d][1,4]oxazin-2-yl)amino)-5H-chromeno[4,3-c]pyridine-8-carboxamide] | ≤ 1 | 1 to 10 | ≤ 1 |
| CC1c2cc(Nc3cnc4c(c3)N3C(=O)CC[C@H]3CO4)ncc2-c2ccc(N3CCCC3=O)cc2N1C (stereo partly drawn) [Example 44, (6aS)-2-((5,6-dimethyl-8-(2-oxopyrrolidin-1-yl)-5,6-dihydrobenzo[c][2,6]naphthyridin-3-yl)amino)-6,6a,7,8-tetrahydro-9H-pyrido[2,3-b]pyrrolo[1,2-d][1,4]oxazin-9-one] | 1 to 10 | 10 to 100 | ≤ 1 |
| CC1(C)Oc2cc(N3CCCC3=O)c(F)cc2-c2cnc(Nc3cnc4c(c3)N3C(=O)CC[C@H]3CO4)cc21 [Example 148, (S)-2-((9-fluoro-5,5-dimethyl-8-(2-oxopyrrolidin-1-yl)-5H-chromeno[4,3-c]pyridin-3-yl)amino)-6,6a,7,8-tetrahydro-9H-pyrido[2,3-b]pyrrolo[1,2-d][1,4]oxazin-9-one] | ≤ 1 | 1 to 10 | ≤ 1 |

Results, then the compound that gave them:

| IC50 (PIP4K 2A [1]) [nM] | IC50 (PIP4K2B) [nM] | IC50 (PIP4K 2A [2]) [nM] | Structure (SMILES) |
| --- | --- | --- | --- |
| 1 to 10 | 10 to 100 | ≤ 1 | CC(=O)N1CCOc2ncc(Nc3cc4c(cn3)-c3ccc(N5CCCC5=O)cc3OC4C)cc21 (stereo not drawn) [Example 42, 1-(3-((1-acetyl-2,3-dihydro-1H-pyrido[2,3-b][1,4]oxazin-7-yl)amino)-5-methyl-5H-chromeno[4,3-c]pyridin-8-yl)pyrrolidin-2-one] |
| ≤ 1 | 1 to 10 | ≤ 1 | CC1Oc2cc(N3CCCC3=O)ccc2-c2cnc(Nc3cnc4c(c3)N3C(=O)CC[C@H]3CO4)cc21 (stereo partly drawn) [Example 40, (6aS)-2-((5-methyl-8-(2-oxopyrrolidin-1-yl)-5H-chromeno[4,3-c]pyridin-3-yl)amino)-6,6a,7,8-tetrahydro-9H-pyrido[2,3-b]pyrrolo[1,2-d][1,4]oxazin-9-one] |
| ≤ 1 | 1 to 10 | ≤ 1 | COC(=O)N1CCOc2ncc(Nc3cc4c(cn3)-c3ccc(C(=O)N(C)C)cc3OC4C)cc21 (stereo not drawn) [Example 69, methyl 7-((8-(dimethylcarbamoyl)-5-methyl-5H-chromeno[4,3-c]pyridin-3-yl)amino)-2,3-dihydro-1H-pyrido[2,3-b][1,4]oxazine-1-carboxylate] |
| 1 to 10 | 10 to 100 | ≤ 1 | CC1Oc2cc(N3CCCC3=O)ccc2-c2cnc(Nc3cncc(N4CCNC4=O)c3)cc21 (stereo not drawn) [Example 55, 1-(5-((5-methyl-8-(2-oxopyrrolidin-1-yl)-5H-chromeno[4,3-c]pyridin-3-yl)amino)pyridin-3-yl)imidazolidin-2-one] |
| 1 to 10 | 100 to 1000 | ≤ 1 | CC1Oc2cc(N3CCCC3=O)ccc2-c2cnc(Nc3cnc4c(c3)N(S(=O)(=O)C3CC3)CCO4)cc21 (stereo not drawn) [Example 52, 1-(3-((1-(cyclopropylsulfonyl)-2,3-dihydro-1H-pyrido[2,3-b][1,4]oxazin-7-yl)amino)-5-methyl-5H-chromeno[4,3-c]pyridin-8-yl)pyrrolidin-2-one] |
| 1 to 10 | 10 to 100 | ≤ 1 | CC1Oc2cc(N3CCCC3=O)ccc2-c2cnc(Nc3cnc4c(c3)N(S(=O)(=O)C(C)C)CCO4)cc21 (stereo not drawn) [Example 85, 1-(3-((1-(isopropylsulfonyl)-2,3-dihydro-1H-pyrido[2,3-b][1,4]oxazin-7-yl)amino)-5-methyl-5H-chromeno[4,3-c]pyridin-8-yl)pyrrolidin-2-one] |
| 10 to 100 | > 1000 | 1 to 10 | CC1Oc2cc(N3CCCC3=O)ccc2-c2cnc(Nc3cncc(F)c3)cc21 (stereo not drawn) [Example 50, 1-(3-((5-fluoropyridin-3-yl)amino)-5-methyl-5H-chromeno[4,3-c]pyridin-8-yl)pyrrolidin-2-one] |
| ≤ 1 | 1 to 10 | ≤ 1 | COC(=O)N1CCOc2ncc(Nc3cc4c(cn3)-c3ccc(N5CCCC5=O)cc3OC4C)cc21 (stereo not drawn) [Example 83, methyl 7-((5-methyl-8-(2-oxopyrrolidin-1-yl)-5H-chromeno[4,3-c]pyridin-3-yl)amino)-2,3-dihydro-1H-pyrido[2,3-b][1,4]oxazine-1-carboxylate] |
